Patent US20240317866A1, “Use of Anti-EGFR/Anti-Met Antibody to Treat Gastric or Esophageal Cancer” (Janssen Biotech, Inc., priority 2022, published 2024)
Entries after “also recorded” stand apart in the source; their conditions may differ. Read-outs that look alike come from different tables or passages of the source.

System: esophageal cancer (EC) expressing EGFR and/or cMet
Type: in vivo
From the text: Approximately 30 participants with any expression level of EGFR, cMet, or both proteins are enrolled in each of the Phase 2a cohort. […] Additional enrollment in Phase 2a cohorts may be allowed to achieve this minimal enrollment.
This is an open-label, multicenter, multi-arm Phase 2 interventional study in participants with previously treated advanced or unresectable GC or EC who are 20 years or older (or the legal age of consent in the jurisdiction in which the study is taking place). Japanese participants with gastric/GEJ or EC who express varying degrees of EGFR, cMet, or both as determined by IHC locally or centrally are enrolled in the GC cohort or EC cohort.
The baseline disease assessments are performed as close as possible to the start of treatment, but no more than 28 days prior to the first dose. Subsequent assessments are performed at 6 weeks (+1 week) after initiation of study treatment administration, then every 6 weeks (±1 week) for the first 12 months and then every 12 weeks (±1 week) until objective radiographic disease progression. Timing for each disease assessment is relative to the first dose of study treatment administration, regardless of dose modifications, and continues until disease progression. Any other site at which new disease is suspected is also imaged.
The primary efficacy measure is ORR. Objective response rate is defined as the proportion of participants who achieve either CR or PR, determined by investigator assessment using RECIST Version 1.1. Confirmation of investigator-assessed ORR may be performed through IRC in the Phase 2b.
Disease Control Rate: Disease control rate is defined as the percentage of participants achieving complete or partial response or stable disease for at least 6 weeks as defined by RECIST Version1.1. The DCR and its 95% CI with Clopper-Pearson method are also calculated.
Next, response to treatment was evaluated. The “All Treated” patient population were patients who received at least 1 dose of study treatment.

[1] = all treated population, IHC 1+, N=1, 1,050/1,400 mg IV, number of participants
[2] = all treated population, IHC 2+, N=10, 1,050/1,400 mg IV
[3] = all treated population, IHC 2+, N=10, 1,050/1,400 mg IV, number of participants
[4] = all treated population, IHC 3+, N=17, 1,050/1,400 mg IV
[5] = all treated population, IHC 3+, N=17, 1,050/1,400 mg IV, number of participants
[6] = all treated population, IHC NA, N=2, 1,050/1,400 mg IV, number of participants
[7] = all treated population, Total, N=30, 1,050/1,400 mg IV
[8] = all treated population, Total, N=30, 1,050/1,400 mg IV, number of participants
[9] = response evaluable population, IHC 1+, N=1, 1,050/1,400 mg IV, number of participants
[10] = response evaluable population, IHC 2+, N=10, 1,050/1,400 mg IV
[11] = response evaluable population, IHC 2+, N=10, 1,050/1,400 mg IV, number of participants
[12] = response evaluable population, IHC 3+, N=17, 1,050/1,400 mg IV
[13] = response evaluable population, IHC 3+, N=17, 1,050/1,400 mg IV, number of participants
[14] = response evaluable population, Total, N=28, 1,050/1,400 mg IV
[15] = response evaluable population, Total, N=28, 1,050/1,400 mg IV, number of participants

## amivantamab
3 patients treated with 1750 mg IV
  best overall response, per patient: One patient had stable disease; also recorded: one had partial response; also recorded: one had progressing disease
All treated population, IHC 1+, N=1, 1,050/1,400 mg IV
  Disease control rate (CR + PR + SD): (100.0%)
[1]
  Complete response (CR): 0
  Disease control rate (CR + PR + SD): 1
  Not Evaluable (NE): 0
  Objective response rate (CR + PR): 0
  Partial response (PR): 0
  Progressive Disease (PD): 0
[2]
  Disease control rate (CR + PR + SD): (70.0%)
  Objective response rate (CR + PR): (10.0%)
  Partial response (PR): (10.0%)
  Progressive Disease (PD): (30.0%)
[3]
  Complete response (CR): 0
  Disease control rate (CR + PR + SD): 7
  Not Evaluable (NE): 0
  Objective response rate (CR + PR): 1
  Partial response (PR): 1
  Progressive Disease (PD): 3
[4]
  Disease control rate (CR + PR + SD): (64.7%)
  Objective response rate (CR + PR): (11.8%)
  Partial response (PR): (11.8%)
  Progressive Disease (PD): (35.3%)
[5]
  Complete response (CR): 0
  Disease control rate (CR + PR + SD): 11
  Not Evaluable (NE): 0
  Objective response rate (CR + PR): 2
  Partial response (PR): 2
  Progressive Disease (PD): 6
All treated population, IHC NA, N=2, 1,050/1,400 mg IV
  Disease control rate (CR + PR + SD): (100.0%)
[6]
  Complete response (CR): 0
  Disease control rate (CR + PR + SD): 2
  Not Evaluable (NE): 0
  Objective response rate (CR + PR): 0
  Partial response (PR): 0
  Progressive Disease (PD): 0
[7]
  Disease control rate (CR + PR + SD): (70.0%)
  Objective response rate (CR + PR): (10.0%)
  Partial response (PR): (10.0%)
  Progressive Disease (PD): (30.0%)
[8]
  Complete response (CR): 0
  Disease control rate (CR + PR + SD): 21
  Not Evaluable (NE): 0
  Objective response rate (CR + PR): 3
  Partial response (PR): 3
  Progressive Disease (PD): 9
Response evaluable population, IHC 1+, N=1, 1,050/1,400 mg IV
  Disease control rate (CR + PR + SD): (100.0%)
[9]
  Complete response (CR): 0
  Disease control rate (CR + PR + SD): 1
  Not Evaluable (NE): 0
  Objective response rate (CR + PR): 0
  Partial response (PR): 0
  Progressive Disease (PD): 0
[10]
  Disease control rate (CR + PR + SD): (70.0%)
  Objective response rate (CR + PR): (10.0%)
  Partial response (PR): (10.0%)
  Progressive Disease (PD): (30.0%)
[11]
  Complete response (CR): 0
  Disease control rate (CR + PR + SD): 7
  Not Evaluable (NE): 0
  Objective response rate (CR + PR): 1
  Partial response (PR): 1
  Progressive Disease (PD): 3
[12]
  Disease control rate (CR + PR + SD): (64.7%)
  Objective response rate (CR + PR): (11.8%)
  Partial response (PR): (11.8%)
  Progressive Disease (PD): (35.3%)
[13]
  Complete response (CR): 0
  Disease control rate (CR + PR + SD): 11
  Not Evaluable (NE): 0
  Objective response rate (CR + PR): 2
  Partial response (PR): 2
  Progressive Disease (PD): 6
[14]
  Objective response rate (CR + PR): (10.7%)
  Partial response (PR): (10.7%)
  Progressive Disease (PD): (32.1%)
[15]
  Complete response (CR): 0
  Disease control rate (CR + PR + SD): 19
  Not Evaluable (NE): 0
  Objective response rate (CR + PR): 3
  Partial response (PR): 3
  Progressive Disease (PD): 9
